Data on one compound can be found in USRE43615E1, “Method for controlling the yeast-to-filamentous growth transition in fungi” (priority 2007, dated 2012).

For assay [1], the system named is C. albicans SC3514 (wild type) yeast-to-hypha transition. The experiment in a line: Inhibition of yeast-to-hypha transition in optical microplates, monitored by microscopy. Format: cell-based, Candida albicans. From the text: (§1) A simple in vitro assay system was designed to detect inhibition of the yeast-to-filamentous growth transition in C. albicans. In this assay, C. albicans cells are first grown under conditions that maintain them in a yeast growth form. The yeast-form cells are then transferred to the wells of an optical microplate containing (i) a medium that induces either the yeast-to-hypha transition (in wild type cells) or the yeast-to-pseudohypha transition (in a conditional pseudohyphal mutant strain) and (ii) varying concentrations of BH3I-1 (typically 0, 10, 30, 50, 100 and 200 μM BH3I-1). The plates are incubated for up to six hours at 37° C. (to test for the hyphal transition) or up to 24 hours 30° C. (to test for the pseudohyphal transition). The transition to filamentous growth (or lack thereof) is monitored in the optical microplates directly with a Nikon TE200 inverted microscope.
(§2) C. albicans SC3514 was used as the “wild type” strain to monitor the yeast-to-hypha transition. A “conditional pseudohyphal mutant” strain was used to monitor the yeast-to-pseudohypha transition. The conditional strain harbors deletions of both native GRR1 alleles plus an introduced wild type copy of GRR1 under the control of the regulatable MET3 promoter. Deletion of GRR1 was previously found to cause pseudohyphal growth.
(§3) Standard yeast growth media were used for these experiments. To maintain wild type cells in the yeast-form, cells were grown in YPD medium (1% Yeast Extract, 2% Peptone and 2% Dextrose) at 30° C. To induce hyphal growth in the wild type strain, cells were transferred to Spider medium (1% Nutrient broth, 1% mannitol, […]) at 37° C. or to Lee's medium (0.5% (NH4)SO4, 0.02% MgSO4, 0.5% NaCl, 1.25% glucose, supplemented with alanine, leucine, lysine, ornithine, phenylalanine threonine and biotin) at 37° C. To maintain the conditional pseudohyphal mutant strain in the yeast-form, cells were grown in YNB medium (Yeast Nitrogen Base, ammonium sulfate, succinic acid supplemented with the appropriate amino acids) at 30° C. […]

Assay [2] concerns C. albicans conditional pseudohyphal mutant (grr1/grr1, MET3p-driven GRR1) yeast-to-pseudohypha transition. The experiment in a line: Inhibition of yeast-to-pseudohypha transition in optical microplates, monitored by microscopy. Format: cell-based, Candida albicans.
Excerpt: as §1, §2, §3

Consider `CC(C)C(C(=O)O)N1C(=O)C(=Cc2ccc(Br)cc2)SC1=S` (stereo not drawn) [BH3I-1, 5-(p-Bromobenzylidine)-α-isopropyl-4-oxo-2-thioxo-3-thiozolidineacetic acid], for which, in assay [1] (wild type SC3514, both hyphal-inducing media (Spider medium, Lee's medium), 37° C.), the “minimum inhibitory concentration (MIC) for the yeast-to-hypha transition” value was in the range of 50 to 100 µM. Besides, in assay [1] (wild type SC3514, hyphal-inducing media), the “growth of treated cells in hyphal-inducing media” value is on record as “continued to divide as yeast cells”. Also, the “yeast-to-hypha transition of treated cells” value in assay [1] (wild type SC3514 transferred from YPD medium to Spider medium or Lee's medium) is recorded as “failed to undergo the yeast-to-hypha transition”. Besides, in assay [2] (conditional pseudohyphal mutant transferred from YNB medium to YNB plus methionine/cysteine medium), the “yeast-to-pseudohypha transition of treated cells” value is “failed to undergo the yeast-to-pseudohypha transition”. The “MIC for the yeast-to-pseudohypha transition” value in assay [2] (conditional pseudohyphal mutant, YNB plus methionine/cysteine medium, 30° C.) was 100 µM. The “growth of treated cells in pseudohyphal-inducing medium” value in assay [2] (conditional pseudohyphal mutant, pseudohyphal-inducing medium) is reported as “continued to divide as yeast cells”.
